According to patent US8247211B2, “Glycopeptide antibiotics” (American Cyanamid Company, priority 2001, dated 2012):
≈ marks a conversion by molar mass, not a printed value. Each block holds one compound with its values, some of them ahead of it.

Key:
Experiment in all cases: In vitro antibacterial evaluation: minimum inhibitory concentration (MIC), broth dilution method
Type in all cases: cell-based
Conditions in all cases: 18 hours at 35° C.
[1] = test system: Enterococcus sp.
Method in brief: (§1)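 NCCLS M7-A2 broth dilution; Muller-Hinton II […]; 5×10^5 CFU/mL; 64-0.06 μg/mL. MIC = lowest concentration with no growth.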

[2] = test system: Escherichia coli
Method in brief: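 Broth dilution per NCCLS M7-A2 in Muller-Hinton II […], inoculum 5×10^5 CFU/mL, antibiotic tested over 64-0.06 μg/mL. MIC is taken as the lowest concentration that inhibits growth. Panel includes recent clinical isolates resistant to methicillin, penicillin and/or vancomycin.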

[3] = test system: Staphylococcus sp.
Method in brief: as §1

[4] = test system: Streptococcus sp.
Method in brief: as §1

[5] = Enterococcus faecalis (GC 2242)
[6] = Enterococcus faecalis (GC 2691)
[7] = Enterococcus faecalis (GC 3059)
[8] = broth dilution, inoculum 5×10^5 CFU/mL
[9] = Streptococcus agalactiae (GC 4564)
[10] = Streptococcus pneumoniae (ATCC 6301)
[11] = Streptococcus pneumoniae (GC 1894)
[12] = Streptococcus pneumoniae (GC 4565)
[13] = Streptococcus pyogenes (GC 4563)

MIC Enterococcus avium (GC 4558) [1]: 16 µg/mL (≈ 11 µM)
MIC Enterococcus faecalis (ATCC 29212) [1]: 16 µg/mL (≈ 11 µM)
MIC Enterococcus faecalis (GC 2242) [1, 5]: 16 µg/mL (≈ 11 µM)
MIC Enterococcus faecalis (GC 2691) [1, 6]: 16 µg/mL (≈ 11 µM)
MIC Enterococcus faecalis (GC 3059) [1, 7]: 32 µg/mL (≈ 21.9 µM)
MIC Enterococcus faecalis (GC 4552) [1]: 32 µg/mL (≈ 21.9 µM)
MIC Enterococcus faecalis (GC 4553) [1]: 32 µg/mL (≈ 21.9 µM)
MIC Enterococcus faecalis (GC 4554) [1]: 32 µg/mL (≈ 21.9 µM)
MIC Enterococcus faecalis (GC 6189) [1]: 16 µg/mL (≈ 11 µM)
MIC Enterococcus faecium (GC 2243) [1]: 16 µg/mL (≈ 11 µM)
MIC Enterococcus faecium (GC 4556) [1]: 32 µg/mL (≈ 21.9 µM)
MIC Enterococcus faecium (GC 4557) [1]: 4 µg/mL (≈ 2.74 µM)
MIC Enterococcus faecalis (GC 2242) [1, 8]: 16 µg/mL (≈ 11 µM)
MIC Enterococcus faecalis (GC 2691) [1, 8]: 16 µg/mL (≈ 11 µM)
MIC Enterococcus faecalis (GC 3059) [1, 8]: 32 µg/mL (≈ 21.9 µM)
MIC Escherichia coli (ATCC 25922) [2]: >64 µg/mL
MIC Escherichia coli (GC 4559) [2]: >64 µg/mL
MIC Escherichia coli (GC 4560) [2]: 2 µg/mL (≈ 1.37 µM)
MIC Coagulase Negative Staphylococcus (GC 4547) [3]: 2 µg/mL (≈ 1.37 µM)
MIC Coagulase Negative Staphylococcus (GC 4548) [3]: 2 µg/mL (≈ 1.37 µM)
MIC Coagulase Negative Staphylococcus (GC 4549) [3]: 2 µg/mL (≈ 1.37 µM)
MIC Coagulase Negative Staphylococcus (GC 4551) [3]: 4 µg/mL (≈ 2.74 µM)
MIC Coagulase Negative Staphylococcus (GC 6257) [3]: 1 µg/mL (≈ 0.685 µM)
MIC Staphylococcus aureus (ATCC 29213) [3]: 4 µg/mL (≈ 2.74 µM)
MIC Staphylococcus aureus (GC 1131) [3]: 4 µg/mL (≈ 2.74 µM)
MIC Staphylococcus aureus (GC 3051) [3]: 4 µg/mL (≈ 2.74 µM)
MIC Staphylococcus aureus (GC 3053) [3]: 8 µg/mL (≈ 5.48 µM)
MIC Staphylococcus aureus (GC 4541) [3]: 4 µg/mL (≈ 2.74 µM)
MIC Staphylococcus aureus (GC 4542) [3]: 4 µg/mL (≈ 2.74 µM)
MIC Staphylococcus aureus (GC 4544) [3]: 8 µg/mL (≈ 5.48 µM)
MIC Staphylococcus aureus (GC 4545) [3]: 2 µg/mL (≈ 1.37 µM)
MIC Staphylococcus aureus-SMITH (GC 4543) [3]: 4 µg/mL (≈ 2.74 µM)
MIC Streptococcus agalactiae (GC 4564) [4, 9]: 2 µg/mL (≈ 1.37 µM)
MIC Streptococcus pneumoniae (ATCC 6301) [4, 10]: 1 µg/mL (≈ 0.685 µM)
MIC Streptococcus pneumoniae (GC 1894) [4, 11]: 0.5 µg/mL (≈ 0.343 µM)
MIC Streptococcus pneumoniae (GC 4565) [4, 12]: 1 µg/mL (≈ 0.685 µM)
MIC Streptococcus pyogenes (GC 4563) [4, 13]: 1 µg/mL (≈ 0.685 µM)
MIC Streptococcus agalactiae (GC 4564) [4, 8]: 2 µg/mL (≈ 1.37 µM)
MIC Streptococcus pneumoniae (ATCC 6301) [4, 8]: 1 µg/mL (≈ 0.685 µM)
MIC Streptococcus pneumoniae (GC 1894) [4, 8]: 0.5 µg/mL (≈ 0.343 µM)
MIC Streptococcus pneumoniae (GC 4565) [4, 8]: 1 µg/mL (≈ 0.685 µM)
MIC Streptococcus pyogenes (GC 4563) [4, 8]: 1 µg/mL (≈ 0.685 µM)
Structure (SMILES): CCOc1cc(COCC2OC(OC3C(CO)OC(Oc4ccc(CC5NC(=O)C(C(C)c6ccccc6)NC(=O)CNC(=O)C(CO)NC(=O)C(C(O)C6CNC(=N)N6C6OC(CO)C(O)C(O)C6O)NC(=O)C(C(O)C6CNC(=N)N6)NC5=O)cc4)C(O)C3O)C(O)C(O)C2O)ccc1OC (centres unmarked) [Example 238]
MIC Staphylococcus haemolyticus (GC 4546) [3]: 2 µg/mL (≈ 1.37 µM)

MIC Enterococcus avium (GC 4558) [1]: 4 µg/mL (≈ 2.63 µM)
MIC Enterococcus faecalis (ATCC 29212) [1]: 4 µg/mL (≈ 2.63 µM)
MIC Enterococcus faecalis (GC 2242) [1, 5]: 4 µg/mL (≈ 2.63 µM)
MIC Enterococcus faecalis (GC 2691) [1, 6]: 4 µg/mL (≈ 2.63 µM)
MIC Enterococcus faecalis (GC 3059) [1, 7]: 4 µg/mL (≈ 2.63 µM)
MIC Enterococcus faecalis (GC 4552) [1]: 4 µg/mL (≈ 2.63 µM)
MIC Enterococcus faecalis (GC 4553) [1]: 4 µg/mL (≈ 2.63 µM)
MIC Enterococcus faecalis (GC 4554) [1]: 4 µg/mL (≈ 2.63 µM)
MIC Enterococcus faecalis (GC 6189) [1]: 4 µg/mL (≈ 2.63 µM)
MIC Enterococcus faecium (GC 2243) [1]: 4 µg/mL (≈ 2.63 µM)
MIC Enterococcus faecium (GC 4556) [1]: 4 µg/mL (≈ 2.63 µM)
MIC Enterococcus faecium (GC 4557) [1]: 2 µg/mL (≈ 1.31 µM)
MIC Enterococcus faecalis (GC 2242) [1, 8]: 4 µg/mL (≈ 2.63 µM)
MIC Enterococcus faecalis (GC 2691) [1, 8]: 4 µg/mL (≈ 2.63 µM)
MIC Enterococcus faecalis (GC 3059) [1, 8]: 4 µg/mL (≈ 2.63 µM)
MIC Escherichia coli (ATCC 25922) [2]: >64 µg/mL
MIC Escherichia coli (GC 4559) [2]: >64 µg/mL
MIC Escherichia coli (GC 4560) [2]: 1 µg/mL (≈ 0.657 µM)
MIC Coagulase Negative Staphylococcus (GC 4547) [3]: 2 µg/mL (≈ 1.31 µM)
MIC Coagulase Negative Staphylococcus (GC 4548) [3]: 1 µg/mL (≈ 0.657 µM)
MIC Coagulase Negative Staphylococcus (GC 4549) [3]: 1 µg/mL (≈ 0.657 µM)
MIC Coagulase Negative Staphylococcus (GC 4551) [3]: 2 µg/mL (≈ 1.31 µM)
MIC Coagulase Negative Staphylococcus (GC 6257) [3]: 1 µg/mL (≈ 0.657 µM)
MIC Staphylococcus aureus (ATCC 29213) [3]: 2 µg/mL (≈ 1.31 µM)
MIC Staphylococcus aureus (GC 1131) [3]: 2 µg/mL (≈ 1.31 µM)
MIC Staphylococcus aureus (GC 3051) [3]: 1 µg/mL (≈ 0.657 µM)
MIC Staphylococcus aureus (GC 3053) [3]: 2 µg/mL (≈ 1.31 µM)
MIC Staphylococcus aureus (GC 4541) [3]: 4 µg/mL (≈ 2.63 µM)
MIC Staphylococcus aureus (GC 4542) [3]: 2 µg/mL (≈ 1.31 µM)
MIC Staphylococcus aureus (GC 4544) [3]: 2 µg/mL (≈ 1.31 µM)
MIC Staphylococcus aureus (GC 4545) [3]: 2 µg/mL (≈ 1.31 µM)
MIC Staphylococcus aureus-SMITH (GC 4543) [3]: 2 µg/mL (≈ 1.31 µM)
MIC Streptococcus agalactiae (GC 4564) [4, 9]: 0.25 µg/mL (≈ 0.164 µM)
MIC Streptococcus pneumoniae (ATCC 6301) [4, 10]: <0.06 µg/mL
MIC Streptococcus pneumoniae (GC 1894) [4, 11]: <0.06 µg/mL
MIC Streptococcus pneumoniae (GC 4565) [4, 12]: <0.06 µg/mL
MIC Streptococcus pyogenes (GC 4563) [4, 13]: 0.25 µg/mL (≈ 0.164 µM)
MIC Streptococcus agalactiae (GC 4564) [4, 8]: 0.25 µg/mL (≈ 0.164 µM)
MIC Streptococcus pneumoniae (ATCC 6301) [4, 8]: <0.06 µg/mL
MIC Streptococcus pneumoniae (GC 1894) [4, 8]: <0.06 µg/mL
MIC Streptococcus pneumoniae (GC 4565) [4, 8]: <0.06 µg/mL
MIC Streptococcus pyogenes (GC 4563) [4, 8]: 0.25 µg/mL (≈ 0.164 µM)
Structure (SMILES): COc1ccc(COCC2OC(OC3C(CO)OC(Oc4ccc(CC5NC(=O)C(C(C)c6ccccc6)NC(=O)CNC(=O)C(CO)NC(=O)C(C(O)C6CNC(=N)N6C6OC(CO)C(O)C(O)C6O)NC(=O)C(C(O)C6CNC(=N)N6)NC5=O)cc4)C(O)C3O)C(O)C(O)C2O)cc1OCc1ccccc1 (centres unmarked) [Example 239]
MIC Staphylococcus haemolyticus (GC 4546) [3]: 1 µg/mL (≈ 0.657 µM)
